In patent US9802927B2, “Oxadiazine compounds and methods of use thereof” (Denali Therapeutics, Inc., priority 2015, dated 2017):

What follows are compounds tested on Aβ42 (assay: In vitro cell screening assay in H4 cells expressing human APP751: Aβ42 by sandwich ELISA). Details: Homo sapiens, compounds 0.003-10 μM, incubated overnight (16-18 h), sandwich ELISA of supernatant.
Format: cell-based
How it was run: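 Secreted Aβ42 measured by sandwich ELISA, C-terminal-specific capture and 4G8-HRP detection, TMB read at 450 nm, from supernatants of APP751-expressing H4 cells exposed overnight (16-18 h) to 0.003-10 μM compound in Pro293 medium, 0.33% DMSO. Data scaled between DMSO and DAPT controls; EC50 from variable-slope nonlinear regression.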

Row | EC50 [nM] | Structure (SMILES)
1 | 201 | COc1nc(C2=NOCC(C3CCC(F)(F)CC3)N2)ccc1-n1cnc(C)c1 (single isomer, unassigned; (+)) [Example 139B, (+)-5-(4,4-difluorocyclohexyl)-3-(6-methoxy-5-(4-methyl-1H-imidazol-1-yl)pyridin-2-yl)-5,6-dihydro-4H-1,2,4-oxadiazine]
2 | > 3000 | COc1nc(C2=NOCC(C3CCOCC3)N2)ccc1-n1cnc(C)c1 (single isomer, unassigned; (-)) [Example 143A, (−)-3-(6-methoxy-5-(4-methyl-1H-imidazol-1-yl)pyridin-2-yl)-5-(tetrahydro-2H-pyran-4-yl)-5,6-dihydro-4H-1,2,4-oxadiazine]

Same assay, conditions: compounds 0.003-10 μM, incubated overnight (16-18 h), sandwich ELISA of supernatant

Row | Structure (SMILES) | EC50 [nM]
3 | COc1nc(C2=NOCC(c3cnn(C)c3)N2)ccc1-n1cnc(C)c1 (single isomer, unassigned; (+)) [Example 166B, (+)-3-(6-methoxy-5-(4-methyl-1H-imidazol-1-yl)pyridin-2-yl)-5-(1-methyl-1H-pyrazol-4-yl)-5,6-dihydro-4H-1,2,4-oxadiazine] | > 3000
4 | COc1nc(C2=NOCC(c3cccc(C(F)(F)F)c3)N2C)ccc1-n1cnc(C)c1 (stereo not drawn) [Example 213, 3-(6-methoxy-5-(4-methyl-1H-imidazol-1-yl)pyridin-2-yl)-4-methyl-5-(3-(trifluoromethyl)phenyl)-5,6-dihydro-4H-1,2,4-oxadiazine] | 55.7
5 | COc1nc(C2=NOCC(c3ccc(C(F)(F)F)c(Cl)c3)N2)ccc1-n1cnc(C)c1 (single isomer, unassigned; (+)) [Example 262B, (+)-5-(3-chloro-4-(trifluoromethyl)phenyl)-3-(6-methoxy-5-(4-methyl-1H-imidazol-1-yl)pyridin-2-yl)-5,6-dihydro-4H-1,2,4-oxadiazine] | 10
6 | COc1nc(C2=NOCC(c3nc4ccccc4s3)N2)ccc1-n1cnc(C)c1 (single isomer, unassigned; (+)) [Example 208B, (+)-5-(benzo [d]thiazol-2-yl)-3-(6-methoxy-5-(4-methyl-1H-imidazol-1-yl)pyridin-2-yl)-5,6-dihydro-4H-1,2,4-oxadiazine] | 74

Further lines, results first:

Row | EC50 [nM] | Structure (SMILES)
7 | > 3000 | COc1nc(C2=NOCC(c3ccc(Cl)cc3)N2)ccc1-n1cnc(C)c1 (single isomer, unassigned) [Example 42A, 5-(4-chlorophenyl)-3-(6-methoxy-5-(4-methyl-1H-imidazol-1-yl)pyridin-2-yl)-5,6-dihydro-4H-1,2,4-oxadiazine]
8 | 59.5 | COc1nc(C2=NOCC(c3ccc(F)cc3)N2)ccc1-n1cnc(C)c1 (single isomer, unassigned) [Example 40B, 5-(4-fluorophenyl)-3-(6-methoxy-5-(4-methyl-1H-imidazol-1-yl)pyridin-2-yl)-5,6-dihydro-4H-1,2,4-oxadiazine]
9 | > 3000 | COc1nc(C2=NOCC(c3ccc(Cl)c(F)c3)N2)ccc1-n1cnc(C)c1 (single isomer, unassigned; (-)) [Example 106A, (−)-5-(4-chloro-3-fluorophenyl)-3-(6-methoxy-5-(4-methyl-1H-imidazol-1-yl)pyridin-2-yl)-5,6-dihydro-4H-1,2,4-oxadiazine]
10 | 10.4 | COc1nc(C2=NOCC(c3ccc(Cl)c(C)c3)N2)ccc1-n1cnc(C)c1 (single isomer, unassigned; (+)) [Example 86B, (+)-5-(4-chloro-3-methylphenyl)-3-(6-methoxy-5-(4-methyl-1H-imidazol-1-yl)pyridin-2-yl)-5,6-dihydro-4H-1,2,4-oxadiazine]
11 | 1760 | COc1nc(C2=NOCC(c3ccc4ncsc4c3)N2)ccc1-n1cnc(C)c1 (single isomer, unassigned; (-)) [Example 183A, (−)-5-(benzo [d]thiazol-6-yl)-3-(6-methoxy-5-(4-methyl-1H-imidazol-1-yl)pyridin-2-yl)-5,6-dihydro-4H-1,2,4-oxadiazine]
12 | 23 | COc1nc(C2=NOCC(c3cccc(C4CC4)c3)N2)ccc1-n1cnc(C)c1 (single isomer, unassigned; (+)) [Example 127B, (+)-5-(3-cyclopropylphenyl)-3-(6-methoxy-5-(4-methyl-1H-imidazol-1-yl)pyridin-2-yl)-5,6-dihydro-4H-1,2,4-oxadiazine]
